Read-outs that look alike come from different tables or passages of the source.
Legend:
Assay in all cases: β-arrestin based GPCR screen (PathHunter / GPCRmax), agonist mode
Type in all cases: cell-based
Set-up in all cases: host or cells: PathHunter cell lines
168 GPCRs [1] = target: T1, 168 GPCRs (Homo sapiens, UniProt Q5NUL3)
T1 sequence (Q5NUL3 1-361): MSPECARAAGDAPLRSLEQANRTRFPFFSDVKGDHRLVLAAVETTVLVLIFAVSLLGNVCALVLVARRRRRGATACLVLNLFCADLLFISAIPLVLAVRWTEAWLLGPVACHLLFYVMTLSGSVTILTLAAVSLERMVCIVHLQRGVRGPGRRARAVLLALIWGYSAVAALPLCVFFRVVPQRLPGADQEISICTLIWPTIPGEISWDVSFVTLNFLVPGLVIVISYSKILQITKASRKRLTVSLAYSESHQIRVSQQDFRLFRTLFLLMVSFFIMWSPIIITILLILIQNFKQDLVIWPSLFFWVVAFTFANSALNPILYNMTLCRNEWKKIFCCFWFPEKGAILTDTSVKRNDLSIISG
Description: (§1) For agonist determination, cells were incubated with sample to induce response. […] Vehicle concentration was 1%.

168 GPCRs [2] = target: 168 GPCRs (Homo sapiens, UniProt Q8TDS4); details: GPR109A
Description: as §1

168 GPCRs [3] = target: 168 GPCRs (Homo sapiens, UniProt Q03431)
Description: as §1

168 GPCRs [4] = target: 168 GPCRs (Homo sapiens, UniProt P47211)
Description: as §1

168 GPCRs [5] = target: 168 GPCRs (Homo sapiens, UniProt Q15722); details: LTB4R
Description: as §1

168 GPCRs [6] = target: 168 GPCRs (Homo sapiens, UniProt Q8TDV5)
Description: as §1

168 GPCRs [7] = target: 168 GPCRs (Homo sapiens, UniProt P30988); details: Agonist
Description: as §1

168 GPCRs [8] = target: 168 GPCRs (Homo sapiens, UniProt P20309); details: CHRM3, Agonist
Description: as §1

168 GPCRs [9] = target: 168 GPCRs (Homo sapiens, UniProt P49146); details: NPY2R
Description: as §1

168 GPCRs [10] = target: 168 GPCRs (Homo sapiens, UniProt P18825); details: ADRA2C, Agonist
Description: as §1

168 GPCRs [11] = target: 168 GPCRs (Homo sapiens, UniProt P41586); details: ADCYAP1R1, Agonist
Description: as §1

168 GPCRs [12] = target: 168 GPCRs (Homo sapiens, UniProt O43603)
Description: as §1

168 GPCRs [13] = target: 168 GPCRs (Homo sapiens, UniProt P46092); details: CCR10, Agonist
Description: as §1

168 GPCRs [14] = target: 168 GPCRs (Homo sapiens, UniProt Q96LB1)
Description: as §1

168 GPCRs [15] = target: 168 GPCRs (Homo sapiens, UniProt P51582)
Description: as §1

168 GPCRs [16] = target: 168 GPCRs (Homo sapiens, UniProt P21917)
Description: as §1

168 GPCRs [17] = target: 168 GPCRs (Homo sapiens, UniProt P48145)
Description: as §1

168 GPCRs [18] = target: 168 GPCRs (Homo sapiens, UniProt P08588); details: ADRB1, Agonist
Description: as §1

168 GPCRs [19] = target: 168 GPCRs (Homo sapiens, UniProt Q9H3N8)
Description: as §1

168 GPCRs [20] = target: 168 GPCRs (Homo sapiens, UniProt Q96G91)
Description: as §1

[21] = CALCR-RAMP2, read-out: % Activity

Chain of 168 GPCRs (Homo sapiens, UniProt P30988) (P30988 25-474): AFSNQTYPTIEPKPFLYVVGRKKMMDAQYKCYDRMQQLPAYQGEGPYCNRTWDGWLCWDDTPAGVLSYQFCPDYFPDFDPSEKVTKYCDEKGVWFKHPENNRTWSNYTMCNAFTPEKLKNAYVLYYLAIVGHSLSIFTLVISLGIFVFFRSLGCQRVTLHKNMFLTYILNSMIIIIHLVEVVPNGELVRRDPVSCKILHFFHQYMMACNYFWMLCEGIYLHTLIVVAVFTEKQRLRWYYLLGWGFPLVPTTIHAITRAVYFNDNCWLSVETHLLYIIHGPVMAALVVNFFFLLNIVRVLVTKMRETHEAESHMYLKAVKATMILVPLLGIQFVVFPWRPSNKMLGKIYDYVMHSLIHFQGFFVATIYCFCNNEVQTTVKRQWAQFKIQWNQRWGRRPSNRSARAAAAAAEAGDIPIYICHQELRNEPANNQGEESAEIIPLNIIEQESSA
Chain of 168 GPCRs (Homo sapiens, UniProt P46092) (P46092 whole entry): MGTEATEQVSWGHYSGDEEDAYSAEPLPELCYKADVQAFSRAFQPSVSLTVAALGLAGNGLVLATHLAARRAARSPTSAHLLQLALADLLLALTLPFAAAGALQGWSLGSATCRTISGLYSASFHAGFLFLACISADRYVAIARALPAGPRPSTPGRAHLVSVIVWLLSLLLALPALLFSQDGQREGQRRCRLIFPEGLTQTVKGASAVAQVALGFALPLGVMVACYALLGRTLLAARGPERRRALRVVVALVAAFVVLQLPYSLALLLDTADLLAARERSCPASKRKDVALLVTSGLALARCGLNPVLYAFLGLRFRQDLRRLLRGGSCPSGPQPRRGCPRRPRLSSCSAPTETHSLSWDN
Chain of 168 GPCRs (Homo sapiens, UniProt P48145) (P48145 whole entry): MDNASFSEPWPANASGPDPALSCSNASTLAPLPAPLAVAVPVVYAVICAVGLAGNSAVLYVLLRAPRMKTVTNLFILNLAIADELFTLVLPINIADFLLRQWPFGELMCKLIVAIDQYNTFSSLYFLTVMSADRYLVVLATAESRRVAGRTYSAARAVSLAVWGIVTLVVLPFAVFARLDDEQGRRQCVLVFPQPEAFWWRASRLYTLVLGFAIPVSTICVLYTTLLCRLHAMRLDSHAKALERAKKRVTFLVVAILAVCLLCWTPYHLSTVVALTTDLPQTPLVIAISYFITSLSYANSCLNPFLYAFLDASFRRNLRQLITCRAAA
Chain of 168 GPCRs (Homo sapiens, UniProt Q03431) (Q03431 27-593): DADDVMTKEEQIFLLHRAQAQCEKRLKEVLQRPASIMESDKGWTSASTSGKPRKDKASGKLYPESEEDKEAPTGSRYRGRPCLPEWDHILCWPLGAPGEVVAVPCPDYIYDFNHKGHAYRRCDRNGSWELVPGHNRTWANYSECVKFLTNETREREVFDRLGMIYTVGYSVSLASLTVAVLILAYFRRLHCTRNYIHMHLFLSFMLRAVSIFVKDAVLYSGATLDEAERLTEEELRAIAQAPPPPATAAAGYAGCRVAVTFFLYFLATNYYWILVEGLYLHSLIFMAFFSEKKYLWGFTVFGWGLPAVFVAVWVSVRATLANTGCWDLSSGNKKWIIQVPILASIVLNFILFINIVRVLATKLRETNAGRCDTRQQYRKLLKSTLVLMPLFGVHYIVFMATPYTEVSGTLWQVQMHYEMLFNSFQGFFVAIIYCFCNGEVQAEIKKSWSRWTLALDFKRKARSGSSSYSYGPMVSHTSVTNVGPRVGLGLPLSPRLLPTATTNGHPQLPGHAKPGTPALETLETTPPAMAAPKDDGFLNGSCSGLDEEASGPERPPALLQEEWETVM
Chain of 168 GPCRs (Homo sapiens, UniProt P51582) (P51582 whole entry): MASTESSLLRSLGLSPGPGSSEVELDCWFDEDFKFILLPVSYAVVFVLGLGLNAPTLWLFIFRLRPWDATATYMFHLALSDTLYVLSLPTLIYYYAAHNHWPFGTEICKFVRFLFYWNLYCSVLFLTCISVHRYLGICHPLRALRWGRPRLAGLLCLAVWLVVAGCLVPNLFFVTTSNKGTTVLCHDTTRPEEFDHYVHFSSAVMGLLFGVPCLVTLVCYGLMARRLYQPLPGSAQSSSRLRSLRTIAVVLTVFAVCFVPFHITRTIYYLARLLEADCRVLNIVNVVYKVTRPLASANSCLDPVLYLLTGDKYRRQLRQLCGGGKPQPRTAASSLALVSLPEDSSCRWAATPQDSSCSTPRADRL
Chain of 168 GPCRs (Homo sapiens, UniProt P49146) (P49146 whole entry): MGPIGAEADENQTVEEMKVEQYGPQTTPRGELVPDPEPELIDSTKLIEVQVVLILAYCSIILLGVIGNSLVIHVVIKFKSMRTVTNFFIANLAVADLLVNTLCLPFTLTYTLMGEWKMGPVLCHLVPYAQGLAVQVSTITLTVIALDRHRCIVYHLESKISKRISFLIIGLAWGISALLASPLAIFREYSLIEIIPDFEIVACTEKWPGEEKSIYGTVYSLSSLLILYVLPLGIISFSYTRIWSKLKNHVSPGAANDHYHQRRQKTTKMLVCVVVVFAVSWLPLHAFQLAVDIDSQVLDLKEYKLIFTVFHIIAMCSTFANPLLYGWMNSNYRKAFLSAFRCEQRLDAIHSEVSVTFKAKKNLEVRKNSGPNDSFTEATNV
Chain of 168 GPCRs (Homo sapiens, UniProt Q9H3N8) (Q9H3N8 whole entry): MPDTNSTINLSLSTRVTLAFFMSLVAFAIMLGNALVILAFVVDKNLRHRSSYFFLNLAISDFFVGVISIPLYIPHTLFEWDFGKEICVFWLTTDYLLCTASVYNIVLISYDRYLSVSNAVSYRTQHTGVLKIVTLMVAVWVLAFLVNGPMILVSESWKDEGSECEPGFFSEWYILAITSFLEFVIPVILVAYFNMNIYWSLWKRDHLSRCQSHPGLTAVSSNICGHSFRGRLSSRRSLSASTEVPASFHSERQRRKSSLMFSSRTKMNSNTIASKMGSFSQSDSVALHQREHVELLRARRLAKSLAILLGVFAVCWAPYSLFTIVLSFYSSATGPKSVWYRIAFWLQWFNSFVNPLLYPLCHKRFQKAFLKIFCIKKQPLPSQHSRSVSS
Chain of 168 GPCRs (Homo sapiens, UniProt Q15722) (Q15722 whole entry): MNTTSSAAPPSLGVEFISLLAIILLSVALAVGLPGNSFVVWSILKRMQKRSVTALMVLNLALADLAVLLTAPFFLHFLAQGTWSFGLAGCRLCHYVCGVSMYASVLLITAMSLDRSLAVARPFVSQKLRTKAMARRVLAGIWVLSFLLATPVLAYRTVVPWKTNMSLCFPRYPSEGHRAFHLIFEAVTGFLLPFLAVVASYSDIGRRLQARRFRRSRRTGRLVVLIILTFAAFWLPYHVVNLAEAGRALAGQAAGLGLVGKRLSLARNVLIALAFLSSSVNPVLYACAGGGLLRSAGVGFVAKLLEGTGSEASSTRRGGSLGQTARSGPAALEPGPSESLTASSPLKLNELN
Chain of 168 GPCRs (Homo sapiens, UniProt P21917) (P21917 whole entry): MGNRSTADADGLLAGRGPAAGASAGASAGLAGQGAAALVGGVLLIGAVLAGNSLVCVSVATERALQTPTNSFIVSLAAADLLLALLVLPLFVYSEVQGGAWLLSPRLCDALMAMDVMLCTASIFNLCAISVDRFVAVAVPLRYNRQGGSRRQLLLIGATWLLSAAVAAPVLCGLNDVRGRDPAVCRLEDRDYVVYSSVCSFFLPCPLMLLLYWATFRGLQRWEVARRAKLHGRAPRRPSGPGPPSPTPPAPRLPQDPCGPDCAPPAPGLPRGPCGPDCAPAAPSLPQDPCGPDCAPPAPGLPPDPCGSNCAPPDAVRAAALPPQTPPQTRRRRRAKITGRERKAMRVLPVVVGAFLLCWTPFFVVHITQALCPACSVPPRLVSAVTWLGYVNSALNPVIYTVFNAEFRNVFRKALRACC
Chain of 168 GPCRs (Homo sapiens, UniProt P47211) (P47211 whole entry): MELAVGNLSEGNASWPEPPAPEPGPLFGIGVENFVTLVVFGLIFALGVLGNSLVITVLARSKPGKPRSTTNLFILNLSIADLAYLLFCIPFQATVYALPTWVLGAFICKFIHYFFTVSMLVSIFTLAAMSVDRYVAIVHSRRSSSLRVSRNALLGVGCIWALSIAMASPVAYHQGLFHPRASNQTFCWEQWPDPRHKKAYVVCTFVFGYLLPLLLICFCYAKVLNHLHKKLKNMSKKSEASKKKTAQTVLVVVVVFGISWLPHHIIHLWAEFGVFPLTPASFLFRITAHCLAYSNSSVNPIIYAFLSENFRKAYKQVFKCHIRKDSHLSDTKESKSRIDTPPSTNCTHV
Chain of 168 GPCRs (Homo sapiens, UniProt Q96G91) (Q96G91 whole entry): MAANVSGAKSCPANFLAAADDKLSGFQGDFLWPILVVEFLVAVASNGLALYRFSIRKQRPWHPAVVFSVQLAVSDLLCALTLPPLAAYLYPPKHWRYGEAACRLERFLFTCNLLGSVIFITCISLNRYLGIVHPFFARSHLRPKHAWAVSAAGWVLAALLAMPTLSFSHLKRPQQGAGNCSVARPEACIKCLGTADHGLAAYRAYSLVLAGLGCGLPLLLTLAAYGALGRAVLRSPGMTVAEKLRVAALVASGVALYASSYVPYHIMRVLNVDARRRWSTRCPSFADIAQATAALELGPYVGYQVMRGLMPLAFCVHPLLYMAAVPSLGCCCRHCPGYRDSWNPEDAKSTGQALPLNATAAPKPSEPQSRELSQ
Chain of 168 GPCRs (Homo sapiens, UniProt P41586) (P41586 21-468): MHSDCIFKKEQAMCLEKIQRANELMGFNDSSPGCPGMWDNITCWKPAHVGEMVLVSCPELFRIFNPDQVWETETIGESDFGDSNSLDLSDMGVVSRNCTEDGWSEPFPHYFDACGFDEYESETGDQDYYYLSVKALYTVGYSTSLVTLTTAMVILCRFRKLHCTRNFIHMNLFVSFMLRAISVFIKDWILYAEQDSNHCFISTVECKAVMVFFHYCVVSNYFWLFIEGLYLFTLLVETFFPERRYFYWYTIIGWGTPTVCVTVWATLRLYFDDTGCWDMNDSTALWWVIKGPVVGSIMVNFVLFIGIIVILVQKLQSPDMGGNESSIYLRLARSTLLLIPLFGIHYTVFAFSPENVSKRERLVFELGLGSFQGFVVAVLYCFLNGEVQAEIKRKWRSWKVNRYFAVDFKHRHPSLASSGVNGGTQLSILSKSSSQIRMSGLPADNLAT

CNC(C)C(=O)c1ccc2c(c1)OCO2 (centres unmarked) [methylone, 3,4-methylenedioxy-N-methylcathinone]
activity at 10 µM (168 GPCRs [1]; GPR120, Agonist mode, 10 uM): -5.8% | activity at 1 µM (168 GPCRs [1]; GPR120, Agonist, 1 uM): -5.1% | activity at 10 µM (168 GPCRs [2]; Agonist mode, 10 uM): -4.3% | activity at 1 µM (168 GPCRs [2]; Agonist, 1 uM): -8.7% | activity at 10 µM (168 GPCRs [3]; PTHR1, Agonist mode, 10 uM): 0.1% | activity at 1 µM (168 GPCRs [3]; PTHR1, Agonist, 1 uM): 0% | activity at 10 µM (168 GPCRs [4]; GALR1, Agonist mode, 10 uM): 0.6% | activity at 1 µM (168 GPCRs [4]; GALR1, Agonist, 1 uM): 0.8% | activity at 10 µM (168 GPCRs [5]; Agonist mode, 10 uM): -0.8% | activity at 1 µM (168 GPCRs [5]; Agonist, 1 uM): -0.3% | activity at 10 µM (168 GPCRs [6]; GPR119, Agonist mode, 10 uM): -2.2% | activity at 1 µM (168 GPCRs [6]; GPR119, Agonist, 1 uM): -5.8% | activity at 1 µM (168 GPCRs [7]; [21]): 0.9% | activity at 10 µM (168 GPCRs [7]; [21]): 1.6% | activity at 1 µM (168 GPCRs [7]; CALCR-RAMP3): 7.9% | activity at 10 µM (168 GPCRs [7]; CALCR-RAMP3): 7.1% | activity at 1 µM (168 GPCRs [7]; CALCR, read-out: % Activity): -0.3% | activity at 10 µM (168 GPCRs [7]; CALCR, read-out: % Activity): 0.2% | activity at 1 µM (168 GPCRs [8]; 1 uM): 6% | activity at 10 µM (168 GPCRs [8]; 10 uM): 6% | activity at 10 µM (168 GPCRs [9]; Agonist mode, 10 uM): 0.2% | activity at 1 µM (168 GPCRs [9]; Agonist, 1 uM): -0.1% | activity at 1 µM (168 GPCRs [10]; 1 uM): -2.5% | activity at 10 µM (168 GPCRs [10]; 10 uM): 0.1% | activity at 1 µM (168 GPCRs [11]; 1 uM): -4% | activity at 10 µM (168 GPCRs [11]; 10 uM): -3% | activity at 10 µM (168 GPCRs [12]; GALR2, Agonist mode, 10 uM): 1.9% | activity at 1 µM (168 GPCRs [12]; GALR2, Agonist, 1 uM): 3.4% | activity at 1 µM (168 GPCRs [13]; 1 uM): -2% | activity at 10 µM (168 GPCRs [13]; 10 uM): -1.8% | activity at 10 µM (168 GPCRs [14]; MRGPRX2, Agonist mode, 10 uM): 0.73% | activity at 1 µM (168 GPCRs [14]; MRGPRX2, Agonist, 1 uM): 1.4% | activity at 10 µM (168 GPCRs [15]; P2RY4, Agonist mode, 10 uM): 4.1% | activity at 1 µM (168 GPCRs [15]; P2RY4, Agonist, 1 uM): -3.3% | activity at 10 µM (168 GPCRs [16]; DRD4, Agonist mode, 10 uM): 9.4% | activity at 1 µM (168 GPCRs [16]; DRD4, Agonist, 1 uM): -8% | activity at 10 µM (168 GPCRs [17]; NPBWR1, Agonist mode, 10 uM): -1.9% | activity at 1 µM (168 GPCRs [17]; NPBWR1, Agonist, 1 uM): 1.6% | activity at 1 µM (168 GPCRs [18]; 1 uM): -1.7% | activity at 10 µM (168 GPCRs [18]; 10 uM): -1.4% | activity at 1 µM (168 GPCRs [19]; HRH4, Agonist, 1 uM): 8.6% | activity at 10 µM (168 GPCRs [19]; IHRH4, Agonist mode, 10 uM): 9% | activity at 10 µM (168 GPCRs [20]; P2RY11, Agonist mode, 10 uM): -0.3% | activity at 1 µM (168 GPCRs [20]; P2RY11, Agonist, 1 uM): 0.5%

From US12343326B2, “Psychoactive medicines and their use for treating psychiatric and neurological conditions and disorders” (Transcend Therapeutics, Inc., priority 2021, dated 2025)
